Laboratory results as given in patent publication US9944721B2, “Polysialic acid and use for treatment of neurodegenerative and neuroinflammatory diseases” (RHEINISCHE FRIEDRICH-WILHELMS UNIVERSITÄT BONN, priority 2013, dated 2018).

Assays:
[1] = tested on: human iPS cell derived neurons; test: MTT cell viability of human iPS cell derived neurons; assay type: cell-based; settings: 24 hours
Procedure: Human induced pluripotent stem (iPS) cells (Foreskin-1, WiCell) were used for generation of primitive neural stem cell (pNSC) and their differentiation into neurons according to a modified protocol, which was described to obtain primitive neural precursors from human embryonic stem cells. Briefly, iPS cells were cultured on feeder cells to form small colonies. Next, medium was changed to neural stem cell medium (DMEM/F12:Neurobasal; GIBCO) in the presence of leukaemia inhibiting factor (LIF; Millipore, 10 ng/ml) and three small molecules CHIR99021 (inhibitor of GSK-30, Axon Medchem, […]) and SB431542 (inhibitor of TGF-β and activin receptors; Axon Medchem, 3 μM), and Compound E (inhibitor of γ-secretase; Axon Medchem, 0.1 μM) for 10 days. […]
Cell viability was determined by the (3-(4,5-Dimethylthiazol-2-yl)-2,5-diphenyltetrazolium bromide (MTT) assay (Millipore). Cells were treated for 24 hours with 5 nM, 15 nM, 50 nM, 150 nM, 500 nM, 1.5 μM, 5 μM, 15 μM, 50 μM or 150 μM of PSA-20. After 20 hours of stimulation, 10 μl of MTT-reagent was added and cells were cultured for another 4 hours. Then, cells were lysed with isopropanol containing 0.04 M HCl 1M to measure the dye formazan. The light absorbance of the purple formazan dye was determined by a spectrophotometer at a wavelength of 570 nm with a reference wavelength of 630 nm (Perkin Elmer, Envision Multiplate Reader). […]

[2] = tested on: co-culture of human microglial line and iPS cell derived neurons; test: Microglial neurotoxicity in human microglia-neuron co-culture, 24 hours (neurite length); assay type: cell-based; settings: 1.5 μM, 24 hours co-culture; FIG. 4D
Procedure: Next, the human microglial line was co-cultured for 24 hours with neurons derived from induced pluripotent stem cells and the effect of low molecular weight polysialic acid (PSA-20; 1.5 μM) on microglial neurotoxicity was evaluated. The human neurons were generated from human induced pluripotent stem cells (iPS cells). In vitro differentiation into neurons was carried out using a short modified protocol, which was used to induce primitive neural precursors. In detail, iPS cells were cultured on feeder cells to form small colonies. Next medium was changed to neural induction medium in the presence of LIF and three small molecules CHIR99021 (inhibitor of GSK-3β) and SB431542 (inhibitor of TGF-β and activin receptors), and compound E (inhibitor of γ-secretase) for 10 days. To expand the neural precursors, cells were dissociated to single cells by accutase and plated on poly-L-ornithine/fibronectin coated cell culture dishes with induction medium in the presence of leukaemia inhibitory factor (LIF), CHIR99021 and SB431542. […] Ten random photographs were taken for each condition by confocal laser scanning microscopy (Fluoview 1000, Olympus) and length of neuronal branches was measured by Neuron J software (NIH).

Substance: poly-(α(2→8)Neu5Ac)n [PSA-20]
- cell viability of human neurons (MTT) ([1]; 5 nM to 150 μM, FIG. 10A): not reduced
- neuronal cell viability (MTT) ([1]; 150 μM): no interference
- neurotoxic effect of human microglia on human neurons (relative neurite length) [2]: completely prevented the neurotoxic effect
